# Reference: US7767659B2, “Synthesis of naturally occurring ecteinascidins and related compounds” (Pharma Mar, S.A., priority 2002, dated 2010)
# Where two headings read alike, the source gives them in different places.
# Tests used:
# A-549 = experiment: cells; conditions: Homo sapiens, A549, 48 h
# Outline: (§1)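 Colorimetric SRB read (490 nm) on triplicate wells after 48 h at 37 °C, 5% CO2. Dose range 10 to 10^−8 μg/ml; 5×10^3 cells/well pre-attached 18 h.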
# HT-29 = experiment: cells; conditions: Homo sapiens, HT-29, 48 h
# Outline: as §1
# [1] = Inhibition of cells growth by colorimetric assay (SRB); conditions: human
# Outline: as §1
# HMEC1 = experiment: as above
# Outline: as §1
# LoVo = experiment: cells; conditions: Homo sapiens, LoVo, 48 h
# Outline: as §1
# DU-145 = experiment: Inhibition of cells growth by colorimetric assay (SRB); conditions: Homo sapiens, DU-145, 48 h
# Outline: as §1
# IGROV-1 = experiment: as above; conditions: Homo sapiens, IGROV-1, 48 h
# Outline: as §1
# IGROV-ET = experiment: as above; conditions: Homo sapiens, 48 h
# Outline: as §1
# K-562 = experiment: as above; conditions: Homo sapiens, K562, 48 h
# Outline: as §1
# LNCaP = experiment: as above; conditions: Homo sapiens, LNCaP, 48 h
# Outline: as §1
# LoVo-Dox = experiment: as above; conditions: Homo sapiens, 48 h
# Outline: as §1
# PANC-1 = experiment: as above; conditions: Homo sapiens, PANC-1, 48 h
# Outline: as §1
# SK-MEL-28 = experiment: as above; conditions: Homo sapiens, SK-MEL-28, 48 h
# Outline: as §1
# SK-OV-3 = experiment: as above
# Outline: as §1
smiles,measurement,setting,value
C=CCN1[C@@H]2c3c(cc(C)c(OC)c3O)C[C@H]1[C@H](C#N)N1C2[C@@H]2SC[C@]3(NCCc4cc(O)c(OC)cc43)C(=O)OC[C@H]1c1c3c(c(C)c(OC(C)=O)c12)OCO3 (stereo partly drawn) [compound 14],GI50,A-549; read-out: GI50 A549,2230 nM
same,CC50,A-549; read-out: LC50 A549,11700 nM
same,IC (TGI),A-549; read-out: TGI A549,5110 nM
same,GI50,HT-29; read-out: GI50 HT29,1770 nM
same,CC50,HT-29; read-out: LC50 HT29,12500 nM
same,IC (TGI),HT-29; read-out: TGI HT29,6390 nM
same,CC50 at 48 h,[1],12500 nM
same,TGI H-MEC-1,"HMEC1; H-MEC-1, SRB, 48 hours exposure",1.25E−05 Molar
same,GI50,"HMEC1; Homo sapiens, HMEC-1, 48 h, read-out: GI50 H-MEC-1",3000 nM
COc1cc2c(cc1O)CCN[C@]21CS[C@@H]2c3c(OC(C)=O)c(C)c4c(c3[C@H](CNC1=O)N1C2[C@H]2c3c(cc(C)c(OC)c3O)CC([C@@H]1O)N2C)OCO4 (stereo partly drawn) [compound 77],GI50,A-549; read-out: A549 GI50,301 nM
same,CC50,A-549; read-out: A549 LC50,3650 nM
same,IC (TGI),A-549; read-out: A549 TGI,728 nM
same,GI50,HT-29; read-out: HT29 GI50,189 nM
same,CC50,HT-29; read-out: HT29 LC50,13100 nM
same,IC (TGI),HT-29; read-out: HT29 TGI,908 nM
same,GI50,LoVo; read-out: LOVO GI50,241 nM
same,CC50,LoVo; read-out: LOVO LC50,13100 nM
same,IC (TGI),LoVo; read-out: LOVO TGI,917 nM
same,GI50,DU-145; read-out: DU145 GI50,301 nM
same,CC50,DU-145; read-out: DU145 LC50,13100 nM
same,IC (TGI),DU-145; read-out: DU145 TGI,1160 nM
same,GI50,IGROV-1; read-out: IGROV GI50,58 nM
same,CC50,IGROV-1; read-out: IGROV LC50,6320 nM
same,IC (TGI),IGROV-1; read-out: IGROV TGI,272 nM
same,GI50,IGROV-ET; read-out: IGROV-ET GI50,652 nM
same,CC50,IGROV-ET; read-out: IGROV-ET LC50,13100 nM
same,IC (TGI),IGROV-ET; read-out: IGROV-ET TGI,1700 nM
same,GI50,K-562; read-out: K562 GI50,16.6 nM
same,CC50,K-562; read-out: K562 LC50,13100 nM
same,IC (TGI),K-562; read-out: K562 TGI,101 nM
same,GI50,LNCaP; read-out: LNCAP GI50,43.5 nM
same,CC50,LNCaP; read-out: LNCAP LC50,118 nM
same,IC (TGI),LNCaP; read-out: LNCAP TGI,71 nM
same,GI50,LoVo-Dox; read-out: LOVO-DOX GI50,929 nM
same,CC50,LoVo-Dox; read-out: LOVO-DOX LC50,13100 nM
same,IC (TGI),LoVo-Dox; read-out: LOVO-DOX TGI,5660 nM
same,GI50,PANC-1; read-out: PANC-1 GI50,418 nM
same,CC50,PANC-1; read-out: PANC-1 LC50,13100 nM
same,IC (TGI),PANC-1; read-out: PANC-1 TGI,2720 nM
same,GI50,SK-MEL-28; read-out: MEL-28 GI50,63.1 nM
same,CC50,SK-MEL-28; read-out: MEL-28 LC50,756 nM
same,IC (TGI),SK-MEL-28; read-out: MEL-28 TGI,175 nM
same,GI50,"SK-OV-3; Homo sapiens, SK-OV-3, 48 h, read-out: SK-OV3 GI50",439 nM
same,CC50,"SK-OV-3; Homo sapiens, SK-OV-3, 48 h, read-out: SK-OV3 LC50",13100 nM
same,SK-OV3 TGI,"SK-OV-3; SK-OV3, SRB, 48 hours exposure",4.86E−06 Molar
